# Values of other authors in patent US20110104279A1, “HEALING POWDER AND METHOD OF USE THEREOF” (priority 2009, published 2011).
# Assays:
# [1] = tested on: acute mediastinitis wounds; settings: 19 patients, wounds packed every 3 to 4 hours
# [2] = tested on: full thickness wounds in the backs of pigs; settings: wounds 25 mm square, 9 mm deep, packed and covered with Opsite
Structure (SMILES),"average time of treatment to near complete debridement, granulation tissue formation and eradication of bacterial infection [1] [days]",wound healing compared with wounds covered with Opsite alone [2]
"OC[C@H]1O[C@@](CO)(O[C@H]2O[C@H](CO)[C@@H](O)[C@H](O)[C@H]2O)[C@@H](O)[C@@H]1O [granular sugar, sucrose]",7.6,
N=C(NCCCCCCNC(=N)NC(=N)Nc1ccc(Cl)cc1)NC(=N)Nc1ccc(Cl)cc1.O=C(O)[C@H](O)[C@@H](O)[C@H](O)[C@H](O)CO.O=C(O)[C@H](O)[C@@H](O)[C@H](O)[C@H](O)CO [chlorhexidine gluconate],,delayed healing
